In brackets after ≈: the same amount, converted by molar mass. Where two headings read alike, the source gives them in different places.

As a reminder, the IC50 is the concentration that gives 50% inhibition. By MIC is commonly meant the lowest concentration that inhibits growth of the organism.

In one test the target is T1, S. aureus RnpA (Staphylococcus aureus, UniProt P0A0H5).
T1 construct: hexahistidine-tag (N); made in house; host or cells: E. coli BL21 (DE3)
The test can be described thus: gel-based RnpA-mediated spa mRNA degradation, inhibitory titration. Type of test: biochemical. As to conditions: 1 pmol spa mRNA, 20 pmol RnpA, one hour at 37° C.; read-out: IC50 of RnpA-mediated RNA degradation. As to the method:
Specifically, members of the ActiProbe-25K and Natural Product libraries (29,940 compounds total; TimTec Inc.; Newark, Del.) were screened for small molecule inhibitors of S. aureus RnpA mediated total bacterial RNA degradation. All reactions (50 μl) were performed in 96-well format and contained 20 pmol RnpA, 200 ng S. aureus total RNA, and about 5 μM of each compound in 1× reaction buffer (2 mM NaCl, 2 mM MgCl2, 50 mM Tris-HCl, pH 6.0). Mixtures were incubated at 37° C. for 20 min at which time Quant-iT RiboGreen® (100 μl; Invitrogen) was added to quantify the amount of RNA substrate remaining. Percent enzyme inhibition was calculated as remaining substrate/starting substrate*100. For inhibitory titration assays, 1 pmol of spa mRNA was incubated with 20 pmol RnpA alone (positive control) or in the presence of increasing amounts (0, 25, 50, 100, 125, 150, 200, 250, and 500 μM) RNP1000 for one hour at 37° C. Following this, 20 μl of each reaction mixture were subjected to electrophoresis in a 1.2% formaldehyde-containing agarose gel and visualized by ethidium bromide staining.

A further test relates to S. aureus RN4220. The test can be described thus: microdilution MIC of RnpA over- and under-producing cells. Type of test: cell-based. To be noted: Staphylococcus aureus, 2.5 μM CdCl2. As for the experimental part: With the exception of RN4220-derivatives, in vitro activities of RNPA1000 against bacteria were determined by the broth microdilution method according to the Clinical and Laboratory Standards Institute (CLSI) guidelines using cation adjusted Mueller-Hinton broth or MH broth supplemented with 5% lysed horse blood (for testing Streptotococcus spp.). Microtiter plates containing serial dilutions of RNPA1000 (0, 4, 8, 16, 32, 64, and 128 μg/ml) were inoculated with 10^5 colony forming units (CFU)/ml and incubated for 18 hr at 37° C. […] The MIC value for each S. aureus strain was determined to be the median score of replicate measurements (n=5). Wells containing concentrations of RNPA1000≧MIC were plated for minimal bactericidal measurement. Where possible, experiments with VRSA strains were performed in a laminar flow hood to minimize potential for equipment contamination. For RN4220 cells containing plasmid vector (pCN51), RnpA overproducing plasmid (pRNPA-S) or RnpA underproducing plasmid (pRNPA-A.S.) in vitro antimicrobial activity of RNPA1000 was performed by the microdilution method as described above, except that cells were grown in Tryptic Soy Broth medium supplemented with 2.5 μM CdCl2 and 0, 1, 2, 4, 8, 16, 32, 64, or 128 μg/ml RNPA1000. Time-kill assays were also performed to monitor the antimicrobial properties of RNPA1000 for S. aureus strain UAMS-1 in the absence and presence of 0.25, 0.5, 2, and 4 times the strain's MIC for oxacillin (1 μg/ml), rifampicin (0.5 μg/ml), vancomycin (2 μg/ml), or daptomycin (1 μg/ml). […]
To assess whether the susceptibility of S. aureus to RNPA1000 was attributable to the inhibition of cellular RnpA, the mRNA turnover properties of S. aureus that were challenged with a sub-inhibitory concentration of RnpA-inhibitor (0.5× MIC) were directly measured. […] To more directly determine whether RNPA1000's antimicrobial effects are mediated through cellular inhibition of RnpA, the RNPA1000 susceptibility of S. aureus RnpA over- and under-producing cells was assessed. […]
A general note: In broth dilution the organism is exposed to a series of concentrations in liquid medium.

The target of a further test is T2, S. aureus RNase J1 (Staphylococcus aureus, UniProt Q2FZG9).
T2 construct: hexahistidine-tag (N); made in house; host or cells: E. coli BL21 (DE3)
The test can be described thus: ribonuclease specificity test. Type of test: biochemical. As to conditions: any concentration tested (0-750 μM). From the text: (§1) In total, fourteen molecules inhibited the enzyme's RNA turnover activity by ≧50%. A gel-based secondary assay confirmed that five of these molecules were bona-fide inhibitors of RnpA-mediated RNA degradation (FIG. 3B).

The target of the next test is T3, RNase A (Bos taurus, UniProt P61823).
T3 construct: purchased
T3 sequence (P61823 27-150): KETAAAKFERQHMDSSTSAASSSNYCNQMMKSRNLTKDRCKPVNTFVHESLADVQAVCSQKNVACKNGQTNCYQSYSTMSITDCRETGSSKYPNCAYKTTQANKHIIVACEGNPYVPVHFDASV
Nature of the test: ribonuclease specificity test. Type of test: biochemical. To be noted: any concentration tested (0-750 μM).
From the text: as §1

A further test concerns the target E. coli RNase III (Escherichia coli, UniProt P0A7Y0). The test can be described thus: ribonuclease specificity test. Type of test: biochemical. As to conditions: data not shown.
From the text: as §1

The target of the next test is T4, RNase I (Escherichia coli, UniProt P21338).
T4 construct: purchased
T4 sequence (P21338 24-268): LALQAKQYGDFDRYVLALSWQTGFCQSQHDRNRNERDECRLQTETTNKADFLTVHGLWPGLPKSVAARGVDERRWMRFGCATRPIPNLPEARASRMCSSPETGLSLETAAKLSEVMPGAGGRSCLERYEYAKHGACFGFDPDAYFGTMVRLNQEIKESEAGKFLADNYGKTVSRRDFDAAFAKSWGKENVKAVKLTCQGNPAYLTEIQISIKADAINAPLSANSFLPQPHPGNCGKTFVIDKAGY
The test can be described thus: ribonuclease specificity test. Type of test: biochemical. As to conditions: any concentration tested (0-750 μM).
From the text: as §1

Another test concerns the target T5, E. coli RNase HI (Escherichia coli, UniProt P0A7Y4).
T5 construct: purchased
The test can be described thus: ribonuclease specificity test. Type of test: biochemical. As to conditions: any concentration tested (0-750 μM).
From the text: as §1

The test system of another test is E. faecium (VRE). The test can be described thus: CLSI broth microdilution MIC. Type of test: cell-based, Enterococcus faecium. To be noted: for MIC: Enterococcus faecium. The source says:
(§2) In some examples, compounds can be further assayed using the Mueller Hinton (MH) broth antibacterial assay as specified by the Clinical and Laboratory Standards Institute MIC broth microdilution protocol (see Methods for Dilution Antimicrobial Susceptibility Tests for Bacteria That Grow Aerobically; Approved Standard, In The Clinical and Laboratory Standards Institute (CLSI, formerly NCCLS), 7th ed., January 2006, 26 (2), M7-A7; see also Performance Standards for Antimicrobial Susceptibility Testing; Eighteenth Informational Supplement, In The Clinical and Laboratory Standards Institute (CLSI, formerly NCCLS), January 2008, 28 (1), M100-S18).
(§3) With the exception of RN4220-derivatives, in vitro activities of RNPA1000 against bacteria were determined by the broth microdilution method according to the Clinical and Laboratory Standards Institute (CLSI) guidelines using cation adjusted Mueller-Hinton broth or MH broth supplemented with 5% lysed horse blood (for testing Streptotococcus spp.). Microtiter plates containing serial dilutions of RNPA1000 (0, 4, 8, 16, 32, 64, and 128 μg/ml) were inoculated with 10^5 colony forming units (CFU)/ml and incubated for 18 hr at 37° C. […] The MIC value for each S. aureus strain was determined to be the median score of replicate measurements (n=5). Wells containing concentrations of RNPA1000≧MIC were plated for minimal bactericidal measurement. Where possible, experiments with VRSA strains were performed in a laminar flow hood to minimize potential for equipment contamination. For RN4220 cells containing plasmid vector (pCN51), RnpA overproducing plasmid (pRNPA-S) or RnpA underproducing plasmid (pRNPA-A.S.) in vitro antimicrobial activity of RNPA1000 was performed by the microdilution method as described above, except that cells were grown in Tryptic Soy Broth medium supplemented with 2.5 μM CdCl2 and 0, 1, 2, 4, 8, 16, 32, 64, or 128 μg/ml RNPA1000. Time-kill assays were also performed to monitor the antimicrobial properties of RNPA1000 for S. aureus strain UAMS-1 in the absence and presence of 0.25, 0.5, 2, and 4 times the strain's MIC for oxacillin (1 μg/ml), rifampicin (0.5 μg/ml), vancomycin (2 μg/ml), or daptomycin (1 μg/ml). The indicated amount of RNPA1000 and/or commercial antibiotic were added to mid-exponential phase (2×10^8 cfu/ml) S. aureus strain UAMS-1 cells and incubated at 37° C. Aliquots were removed at 0, 2, 4, 8, and 24 hr post-antimicrobial challenge, serial diluted, and plated to enumerate resulting cfu/ml. All time-kill assays were repeated at least 3 times.

The test system of a further test is E. faecium. The test can be described thus: CLSI broth microdilution MIC. Type of test: cell-based, Enterococcus faecium. As to conditions: for MIC: Enterococcus faecium.
From the text: as §2, §3

Chain of E. coli RNase III (P0A7Y0 whole entry): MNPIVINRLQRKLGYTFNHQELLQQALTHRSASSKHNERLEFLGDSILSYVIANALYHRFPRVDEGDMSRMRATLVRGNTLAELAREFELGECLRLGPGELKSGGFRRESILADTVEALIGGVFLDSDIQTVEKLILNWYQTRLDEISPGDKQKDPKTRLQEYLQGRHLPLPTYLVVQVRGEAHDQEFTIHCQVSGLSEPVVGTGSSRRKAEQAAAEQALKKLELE
T5 sequence (P0A7Y4 whole entry): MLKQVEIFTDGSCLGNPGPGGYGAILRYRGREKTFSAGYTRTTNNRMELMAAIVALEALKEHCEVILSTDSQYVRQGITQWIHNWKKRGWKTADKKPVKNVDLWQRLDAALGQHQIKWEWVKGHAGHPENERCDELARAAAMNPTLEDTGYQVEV

Turning to `Cc1cc(/C=C(/C#N)C(=O)Nc2cccc(Br)c2)c(C)n1-c1ccc(C(=O)O)cc1` [RNPA1000], the IC50 lay in the range of 100 to 125 µM at S. aureus RnpA and 500 to 750 µM on E. coli RNase III. The minimal inhibitory concentration (MIC) with S. aureus RN4220 (RN4220, RN4220 RnpA overproducing cells) is 32 µg/mL; with S. aureus RN4220 (RN4220, RN4220 RnpA underproducing cells (antisense)), 8 µg/mL; with S. aureus RN4220 (RN4220, RN4220 vector containing cells (pCN51)) it was 32 µg/mL; against E. faecium (VRE) (E. faecium (VRE) Isolate 1), 64 µg/mL (≈ 138 µM); against E. faecium (VRE) (E. faecium (VRE) Isolate 2), 64 µg/mL (≈ 138 µM); against E. faecium (VRE) (E. faecium (VRE) Isolate 3), 32 µg/mL (≈ 68.9 µM). For the same compound, the MIC with E. faecium (VRE) (E. faecium (VRE) Isolate 4) was 64 µg/mL (≈ 138 µM); against E. faecium (VRE) (E. faecium (VRE) Isolate 5) it was 32 µg/mL (≈ 68.9 µM); with E. faecium (E. faecium Isolate 1, read-out: MIC), 64 µg/mL (≈ 138 µM); in the test on E. faecium (E. faecium Isolate 2, read-out: MIC), 64 µg/mL (≈ 138 µM); with E. faecium (E. faecium Isolate 3, read-out: MIC) it was 64 µg/mL (≈ 138 µM); in the test with E. faecium (E. faecium Isolate 4, read-out: MIC) it was 64 µg/mL (≈ 138 µM). Also, the MIC amounted to 32 µg/mL in the test with E. faecium (E. faecium Isolate 5 + reserpine (efflux pump inhibitor)) and 64 µg/mL (≈ 138 µM) with E. faecium (E. faecium Isolate 5, read-out: MIC). On S. aureus RNase J1, the “effect on S. aureus RNase J1 activity” value is recorded as “did not affect the activity”. In addition, at RNase A, the “effect on RNase A activity” value is reported as “did not affect the activity”. At RNase I, the “effect on RNase I activity” value was “did not affect the activity”. The “effect on E. coli RNase HI activity” value on E. coli RNase HI is “did not affect the activity”. Besides, the “antimicrobial activity in words” value in the test with E. faecium (VRE) and in the test with E. faecium was “mild activity” throughout.

The record behind these values is US9233095B2, “Small molecule RNase inhibitors and methods of use” (University of Rochester, priority 2011, dated 2016).
